This is an account of results in ChEMBL document CHEMBL4304826, “Lead identification and characterization of hTrkA type 2 inhibitors” (Bioorg Med Chem Lett, 2019).

By half-life is commonly meant the time in which the quantity being followed falls by half. High values mean slow loss, low ones fast loss. What is called AUC(0-t) is exposure summed from dosing to a finite time, without extrapolation to infinity. The term AUC(0-inf) denotes total exposure, with the tail of the curve extrapolated. Read a high AUC(0-inf) as high exposure. The Vd is a proportionality between amount in the body and measured concentration, not a real space. Lower therefore signals little distribution into tissue. Broadly, the clearance is a measure of how efficiently the substance is removed, as volume per time. As a reminder, the Cmax is the maximum level reached in the sampled fluid or tissue. For orientation: Tmax means the time from dosing to the highest level. In general, bioavailability refers to the share of a dose that reaches the circulation, judged against a reference dose that is usually intravenous. A higher bioavailability goes with good availability. In general, Papp A→B refers to the apparent permeability from the apical to the basolateral side of a cell layer. A higher Papp A→B goes with fast passage. The Papp B→A is the apparent permeability from the basolateral to the apical side of a cell layer.

A short description of series [1]: in vivo. Conditions: Beagle, dog, plasma, iv, 0.2 mg/kg.
The nature of series [2]: in vivo. As to conditions: Beagle, dog, plasma, iv, 0.2 mg/kg. The source holds these as a separate data set.
Series [3] can be described thus: in vivo. Conditions: Beagle, dog, plasma, iv, 0.2 mg/kg. This is another data set of the same source.
Series [4] can be described thus: in vivo. As to conditions: Beagle, dog, plasma, iv, 0.2 mg/kg. This is another data set of the same source.
A short description of series [5]: in vivo. As to conditions: Beagle, dog, plasma, iv, 0.2 mg/kg. The source holds these as a separate data set.
The nature of series [6]: in vivo. Conditions: Beagle, dog, plasma, po, 3 mg/kg.
Series [7] is described as follows: in vivo. As to conditions: Beagle, dog, plasma, po, 3 mg/kg. This is another data set of the same source.
Series [8] in a line: in vivo. Conditions: Beagle, dog, plasma, po, 3 mg/kg. The source holds these as a separate data set.
Series [9] can be described thus: in vivo. Conditions: Beagle, dog, plasma, po, 3 mg/kg. This is another data set of the same source.
Series [10] can be described thus: in vivo. As to conditions: Beagle, dog, plasma, po, 3 mg/kg. This is another data set of the same source.
Series [11] can be described thus: in vivo. Conditions: Beagle, dog, po, 3 mg/kg.
The nature of series [12]: in vitro. Conditions: dog, liver microsomes.
The nature of series [13]: in vitro. As to conditions: dog, MDCK.
Series [14] in a line: in vitro. Conditions: dog, MDCK. The source holds these as a separate data set.

In the case of `Cc1ccc2nc(CSc3nnc(NC(=O)Nc4cccc(C(F)(F)F)c4)s3)cc(=O)n2c1`, the half-life was 37.8 min in “in vivo [1]”, 39 min in the series “in vivo [8]” and 9 min in the series “in vitro [12]”. Further, the AUC(0-t) turned out to be 748 ng·h/mL in the series “in vivo [2]” and 1780 ng·h/mL in “in vivo [9]”. Besides, the values for the AUC(0-inf) in the series “in vivo [3]” and in the series “in vivo [10]” were 755 ng·h/mL and 1790 ng·h/mL, respectively. In the series “in vivo [4]”, this compound displayed a Vd of 0.164 L/kg. Also, the clearance in the series “in vivo [5]” stood at 4.43 mL/min/kg. In “in vivo [6]”, this compound gave a Cmax of 1140 ng/mL. Also, in “in vivo [7]”, the time to peak (Tmax) is 45 min. The bioavailability in “in vivo [11]” amounted to 16%. For the same compound, in “in vitro [13]”, the Papp A→B was found to be 0.14 ×10⁻⁶ cm/s. In “in vitro [14]”, this compound gave a Papp B→A of 3.73 ×10⁻⁶ cm/s.
